Measured values: patent publication US7202265B2, “Indolinone combinatorial libraries and related products and methods for the treatment of disease” (Sugen, Inc., priority 1997, dated 2007)

Each compound was assayed against T1, FLK-1 receptor (Mus musculus, UniProt P35918) (assay: FLK-1 ELISA (catalytic activity of the FLK-1 receptor in FLK-1/NIH3T3 cells)). Conditions: not given.
T1 construct: expressed in transfected cells; host or cells: NIH3T3 C7#3 (FLK-1/NIH3T3)
Format: cell-based
Parameters: Flk Kinase % Inhibition: concentration or dose not given beside the values

T1 sequence (P35918 20-1345): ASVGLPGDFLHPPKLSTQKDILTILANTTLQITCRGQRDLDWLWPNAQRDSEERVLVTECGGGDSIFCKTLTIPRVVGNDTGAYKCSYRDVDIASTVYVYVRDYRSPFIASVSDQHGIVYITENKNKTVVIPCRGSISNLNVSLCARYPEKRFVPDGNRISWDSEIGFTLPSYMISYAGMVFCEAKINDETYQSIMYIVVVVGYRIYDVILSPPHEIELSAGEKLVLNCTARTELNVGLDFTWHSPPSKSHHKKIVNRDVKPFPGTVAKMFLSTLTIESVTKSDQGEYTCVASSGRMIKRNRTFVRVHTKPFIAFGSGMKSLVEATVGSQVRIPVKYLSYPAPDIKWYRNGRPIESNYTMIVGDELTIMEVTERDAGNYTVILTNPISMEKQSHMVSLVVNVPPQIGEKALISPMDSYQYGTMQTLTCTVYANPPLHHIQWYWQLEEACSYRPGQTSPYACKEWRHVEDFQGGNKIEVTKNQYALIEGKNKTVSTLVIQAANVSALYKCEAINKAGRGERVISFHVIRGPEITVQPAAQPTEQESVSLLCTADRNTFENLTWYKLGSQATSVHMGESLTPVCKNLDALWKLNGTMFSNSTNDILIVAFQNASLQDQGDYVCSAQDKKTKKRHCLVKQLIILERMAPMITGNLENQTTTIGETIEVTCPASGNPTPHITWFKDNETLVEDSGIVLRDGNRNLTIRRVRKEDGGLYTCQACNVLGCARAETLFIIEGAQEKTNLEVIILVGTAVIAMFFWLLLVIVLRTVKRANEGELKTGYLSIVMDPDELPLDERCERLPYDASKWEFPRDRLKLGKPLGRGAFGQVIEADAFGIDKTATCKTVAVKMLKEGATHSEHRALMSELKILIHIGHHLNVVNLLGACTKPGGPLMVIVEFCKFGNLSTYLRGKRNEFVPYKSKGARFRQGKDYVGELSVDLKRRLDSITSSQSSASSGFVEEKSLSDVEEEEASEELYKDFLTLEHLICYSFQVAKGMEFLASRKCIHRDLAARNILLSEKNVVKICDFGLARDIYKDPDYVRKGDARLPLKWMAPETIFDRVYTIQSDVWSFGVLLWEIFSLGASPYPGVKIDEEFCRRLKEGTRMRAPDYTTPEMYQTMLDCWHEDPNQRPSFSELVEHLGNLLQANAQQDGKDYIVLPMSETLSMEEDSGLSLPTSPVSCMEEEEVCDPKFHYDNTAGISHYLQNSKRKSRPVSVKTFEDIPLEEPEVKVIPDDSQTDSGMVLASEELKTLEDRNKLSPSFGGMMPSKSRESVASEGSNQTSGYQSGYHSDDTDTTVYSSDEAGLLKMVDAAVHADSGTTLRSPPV

Row | Structure (SMILES) | Flk Kinase % Inhibition [%]
1 | O=C1Nc2ccc(CCCl)cc2C1=Cc1cccc(Br)c1 [10723/G10] | 3.5
2 | COc1cccc(O)c1C=C1C(=O)Nc2ccc(S(=O)(=O)N3CCOCC3)cc21 [10717/F10] | −4.4
3 | COc1c(I)cc(C=C2C(=O)Nc3ccc(S(=O)(=O)N4CCOCC4)cc32)cc1C(C)(C)C [10732/F11] | 14.1

Same assay, conditions: Table 2; read-out: FLK Kinase IC50

Row | Structure (SMILES) | IC50 [µM]
4 | Cc1cccc2c1/C(=C/c1cn(C)c3ccccc13)C(=O)N2 | 7.7
5 | Cn1cc(/C=C2\C(=O)Nc3ccc(N)cc32)c2ccccc21 | 2.5
6 | Cn1cc(/C=C2\C(=O)Nc3ccc(F)cc32)c2ccccc21 | 14
7 | Cn1cc(/C=C2\C(=O)Nc3ccccc32)c2ccccc21 | 0.7
8 | COc1ccc2[nH]cc(/C=C3\C(=O)Nc4ccccc43)c2c1 | 13

Same assay, conditions: Table 6; read-out: FLK Kinase IC50

Row | Structure (SMILES) | IC50 [µM]
9 | O=C1Nc2ccc(Cl)cc2/C1=C/c1cc2c([nH]1)CCCC2 | 5
10 | O=C1Nc2ccccc2/C1=C/c1cc2c([nH]1)CCCC2 | 1.4
11 | Nc1ccc2c(c1)/C(=C/c1cc3c([nH]1)CCCC3)C(=O)N2 | 1.2

Same assay, conditions: Table 7; read-out: Activity 1C50 FLK Kinase

Row | Structure (SMILES) | IC50 [µM]
12 | O=C1Nc2ccccc2/C1=C\c1cc2c([nH]1)CCCC2 [compound 0128] | 1.7
13 | O=C1Nc2ccc(Br)cc2/C1=C\c1cc2c([nH]1)CCCC2 [compound 0129] | 19.6

Same assay, conditions: Table 8

Row | Structure (SMILES) | Activity EC200
14 | Cc1cc(C)c(/C=C2\C(=O)Nc3ccc(C(=O)O)cc32)[nH]1 | ActivityEC200 = 2.8 μm
15 | Cc1ccc(/C=C2\C(=O)Nc3ccc(CCC(=O)O)cc32)s1 | ActivityEC200 > 100 μm
16 | Cc1ccc(/C=C2\C(=O)Nc3ccc(C(=O)O)cc32)s1 | ActivityEC200 = 46 μm
17 | CC(C)c1cc(C(C)C)c(/C=C2\C(=O)Nc3ccc(C(=O)O)cc32)[nH]1 | ActivityEC200 = 10 μm
18 | Cc1cc(C)c(/C=C2\C(=O)Nc3ccc(CCC(=O)O)cc32)[nH]1 | ActivityEC200 = 32 μm
19 | CCc1cc(CC)c(/C=C2\C(=O)Nc3ccc(C(=O)O)cc32)[nH]1 | ActivityEC200 = 2.8 μm

Same assay, conditions: Table 10; read-out: FLK Kinase IC50

Row | Structure (SMILES) | IC50 [µM]
20 | CCc1ccc(/C=C2\C(=O)Nc3ccccc32)cc1 | 20.3
21 | CC(C)(C)c1cc(/C=C2\C(=O)Nc3ccc([N+](=O)[O-])cc32)cc([N+](=O)[O-])c1OCc1ccccc1 | 16.4
22 | Cc1cccc2c1/C(=C/c1ccc(OCCCN(C)C)cc1)C(=O)N2 | 8
23 | CCOC(=O)c1c(C)c(/C=C2\C(=O)Nc3ccccc32)n(C)c1C | 0.97
24 | Cc1cccc2c1/C(=C/c1cc(C(C)C)c(OCc3ccccc3)c(C(C)C)c1)C(=O)N2 | 19.9
25 | O=C1Nc2ccc(Cl)cc2/C1=C/c1ccc[nH]1 | 1.6
26 | O=C1Nc2ccccc2/C1=C/c1ccc(N2CCCC2)cc1 | 9.9
27 | COC(=O)CCc1c[nH]c(/C=C2\C(=O)Nc3ccc(Cl)cc32)c1C | 5.6
28 | COc1ccc(OC)c(/C=C2\C(=O)Nc3cccc(C)c32)c1 | 10.4
29 | Cc1[nH]c(/C=C2\C(=O)Nc3ccc(N)cc32)c(Br)c1Br | 1.9
30 | CN(C)CCCOc1ccc(/C=C2\C(=O)Nc3ccc(N)cc32)cc1 | 13.7
31 | COc1ccc(/C=C2\C(=O)Nc3ccccc32)cc1O | 2.9
32 | COC(=O)CCc1c[nH]c(/C=C2\C(=O)Nc3ccc(N)cc32)c1C | 4.7
33 | COc1c(O)ccc(/C=C2\C(=O)Nc3ccc(Cl)cc32)c1[N+](=O)[O-] | 10.7
34 | Cc1cc(C)c(/C=C2\C(=O)Nc3cccc(C)c32)[nH]1 | 7.3
35 | CCc1cc(CC)c(/C=C2\C(=O)Nc3cccc(C)c32)[nH]1 | 17.3
36 | O=C1Nc2c(Br)cc(Cl)cc2/C1=C/c1cc(O)c(O)c(Br)c1 | 8.8
37 | O=CN1CCN(c2ccc(/C=C3\C(=O)Nc4ccccc43)cc2)CC1 | 6.2

Row | Structure (SMILES) | IC50 [µM]
38 | CCc1c(C)[nH]c(/C=C2\C(=O)Nc3ccc(N)cc32)c1C | 1.5
39 | O=C1Nc2ccc(Cl)cc2/C1=C/c1ccc(O)c(Br)c1 | 5.2
40 | Nc1ccc2c(c1)/C(=C/c1ccc(N3CCCC3)cc1)C(=O)N2 | 18.4
41 | CN(C)CCCOc1ccc(/C=C2\C(=O)Nc3ccccc32)cc1 | 4
42 | COC(=O)CCc1c[nH]c(/C=C2\C(=O)Nc3ccccc32)c1C | 12.5
43 | COC(=O)CCc1c[nH]c(/C=C2\C(=O)Nc3cccc(C)c32)c1C | 10.8
44 | CCc1cc(CC)c(/C=C2\C(=O)Nc3ccccc32)[nH]1 | 8.1
45 | Cc1cc(C)c2c(c1)NC(=O)/C2=C\c1c[nH]cn1 | 4.6
46 | Cc1cc(Cl)cc2c1NC(=O)/C2=C\c1cc(O)c(O)c(Br)c1 | 18.5
47 | CN(C)CCCOc1ccc(/C=C2\C(=O)Nc3ccc(Cl)cc32)cc1 | 11.5
48 | O=CN1CCN(c2ccc(/C=C3\C(=O)Nc4ccc(Cl)cc43)cc2)CC1 | 5.8
49 | O=C1Nc2ccc(Cl)cc2/C1=C/c1ccc(N2CCCC2)cc1 | 12.3
50 | CCc1cc(CC)c(/C=C2\C(=O)Nc3ccc(N)cc32)[nH]1 | 5.6
51 | COc1cc2c(cc1OC)/C(=C/c1coc3ccc(C(C)C)cc3c1=O)C(=O)N2 | 17.1
52 | Cc1cc(C)n(C)c1/C=C1\C(=O)Nc2ccc(N)cc21 | 1.1
53 | CC(C)(C)c1ccc(/C=C2\C(=O)Nc3ccccc32)cc1 | 9.7
54 | O=C1Nc2ccc(Cl)cc2/C1=C/c1c[nH]cn1 | 5.6

These compounds were tested on human MET (assay: MET biochemical kinase assay). Conditions: not given.
Parameters: concentration or dose not given beside the values
How it was run: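 MET captured from cell lysates onto plates coated with goat anti-rabbit Fc plus rabbit polyclonal anti-MET cytoplasmic-domain antibody; after washing, compounds added with kinase buffer containing ATP and divalent metal ions. Receptor tyrosine phosphorylation detected by HRP-conjugated anti-phosphotyrosine antibody, TMB colorimetric read-out.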

Row | Structure (SMILES) | Met Kinase % Inhibition [%]
55 | COc1c(I)cc(C=C2C(=O)Nc3ccc(S(=O)(=O)N4CCOCC4)cc32)cc1C(C)(C)C [10732/F11] | 65.1
56 | O=C1Nc2ccc(S(=O)(=O)Nc3ccc(C(F)(F)F)cc3)cc2C1=Cc1ncc[nH]1 [10720/E11] | −10.4
57 | CNS(=O)(=O)c1ccc2c(c1)C(=Cc1ccc(N3CCN(C=O)CC3)cc1)C(=O)N2 [10725/D07] | 37.0
58 | COc1ccc(OC)c(C=C2C(=O)Nc3ccc(S(=O)(=O)Nc4ccc(C(F)(F)F)cc4)cc32)c1 [10728/E02] | 5.4
59 | CC(=O)n1cc(C=C2C(=O)Nc3ccc(S(=O)(=O)Nc4ccc(C(F)(F)F)cc4)cc32)c2ccccc21 [10730/E05] | 49.0
60 | CCOC(=O)c1cc(C=C2C(=O)Nc3ccc(Br)c(C)c32)oc1C [10718/C06] | 3.9
61 | Cc1c(Br)ccc2c1C(=Cc1cc(Cl)c(OCc3ccccc3)c(C(C)(C)C)c1)C(=O)N2 [10732/C10] | 43.0
62 | O=C1Nc2ccc(S(=O)(=O)Nc3ccc(C(F)(F)F)cc3)cc2C1=Cc1cc([N+](=O)[O-])cc(CCl)c1O [10721/E06] | 81.0
63 | CNS(=O)(=O)c1ccc2c(c1)C(=Cc1ccc(C(F)(F)F)cc1)C(=O)N2 [10722/D11] | 41.0
64 | CCOc1ccc(C=C2C(=O)Nc3ccc(I)cc32)cc1OC [10719/B02] | 47.0
65 | COc1ccc(C=C2C(=O)Nc3ccc(Br)c(C)c32)cc1OC [10720/C04] | 29.0
66 | Cc1c(Br)ccc2c1C(=Cc1sc3scc(C)c3c1C)C(=O)N2 [10724/C11] | 4.9
67 | CC(C)(C)c1cc(C=C2C(=O)Nc3c(Br)cc(Br)cc32)c(O)c(C(C)(C)C)c1 [10723/A11] | 60.0
68 | COc1c(C(C)C)cc(C=C2C(=O)Nc3ccc(Br)c(C)c32)cc1C(C)C [10732/C03] | 14.0
69 | O=C1Nc2ccc(I)cc2C1=Cc1ccc(O)c([N+](=O)[O-])c1 [10724/B03] | 51.0
70 | CCc1ccc(C=C2C(=O)Nc3ccc(S(=O)(=O)Nc4ccc(C(F)(F)F)cc4)cc32)o1 [10724/E10] | 84.0
71 | Cc1csc2sc(C=C3C(=O)Nc4ccc(I)cc43)c(C)c12 [10724/B11] | 43.0
72 | CNS(=O)(=O)c1ccc2c(c1)C(=Cc1cc(C(C)(C)C)cc(C(C)(C)C)c1O)C(=O)N2 [10723/D11] | 42.0

Row | Structure (SMILES) | Met Kinase % Inhibition [%]
73 | CCc1ccc(C=C2C(=O)Nc3ccc(I)cc32)o1 [10724/B10] | 95.0
74 | COc1cc(OC)c(C=C2C(=O)Nc3ccc(S(=O)(=O)Nc4ccc(C(F)(F)F)cc4)cc32)c(OC)c1 [10719/E06] | −4.5
75 | COC(=O)c1[nH]c(C)c(C=C2C(=O)Nc3ccc(CCCl)cc32)c1C(=O)OC [10718/G07] | 52.0
76 | CC(C)(C)c1cc(C=C2C(=O)Nc3ccc(S(=O)(=O)Nc4ccc(C(F)(F)F)cc4)cc32)ccc1OCc1ccccc1 [10732/E06] | −2.1
77 | CNS(=O)(=O)c1ccc2c(c1)C(=Cc1sccc1Br)C(=O)N2 [10725/D02] | 14.0
78 | COc1c(I)cc(C=C2C(=O)Nc3ccc(CCCl)cc32)cc1C(C)(C)C [10732/G11] | 63.0
79 | CNS(=O)(=O)c1ccc2c(c1)C(=Cc1cc(C)c(OC)c(C)c1)C(=O)N2 [10733/D06] | −19.4
80 | COc1ccc(C=C2C(=O)Nc3ccc(CCCl)cc32)c(OC)c1 [10719/G04] | −8.2
81 | CC(C)(C)c1cc(C=C2C(=O)Nc3c(Br)cc(Br)cc32)ccc1OCc1ccccc1 [10732/A06] | 5.7
82 | CNS(=O)(=O)c1ccc2c(c1)C(=Cc1[nH]c(Cl)c(CC(=O)OC)c1C(=O)OC)C(=O)N2 [10725/D09] | 28.0
83 | COc1ccc(C=C2C(=O)Nc3ccc(S(=O)(=O)N4CCOCC4)cc32)c(OC)c1 [10719/F04] | 3.3
84 | O=C1Nc2ccc(CCCl)cc2C1=Cc1ccc(F)cc1 [10717/G05] | 4.7
85 | O=C1Nc2ccc(CCCl)cc2C1=Cc1ccccc1Br [10723/G07] | 43.0
86 | COc1cc(OC)c(OC)cc1C=C1C(=O)Nc2ccc(S(=O)(=O)N3CCOCC3)cc21 [10730/F03] | −0.6
87 | Cc1c(Br)ccc2c1C(=Cc1c(Br)cnn1-c1ccc(Cl)cc1)C(=O)N2 [10725/C10] | −0.6
88 | O=C1Nc2ccc(S(=O)(=O)N3CCOCC3)cc2C1=Cc1c[nH]c2ccccc12 [10717/F06] | 49.0
89 | O=C1Nc2ccc(CCCl)cc2C1=Cc1ccccc1Sc1ccc(Cl)cc1 [10727/G05] | 7.1
90 | O=C1Nc2ccc(CCCl)cc2C1=Cc1ccc([N+](=O)[O-])o1 [10718/G11] | 3.0
